Assay results published in patent US20240300881A1, “PROCESS FOR PREPARATION OF LITHIUM L-THREONATE AND USE THEREOF” (XIXIOXOME BIOTHERAPEUTICS, priority 2023, published 2024).

How the values were obtained:
schizoaffective disorder = conditions: cited from earlier work
[1] = precipitation of lithium hydroxide from solution at different pH; format: physicochemical
Description: L-threonic acid was selected as the ligand for lithium ion, because L-threonic acid can accelerate the absorption of the ion.

[2] = stability in high thermal condition
AAD = conditions: low-dose; cited from earlier work

NC(=O)N1c2ccccc2C=Cc2ccccc21 [carbamazepine]
prophylactic efficacy in maintenance treatment (schizoaffective disorder): equipotent alternatives

O=C([O-])[C@H](O)[C@@H](O)CO.[Li+] [lithium L-threonate]
precipitate of lithium hydroxide ([1]; basic condition): no precipitate of lithium hydroxide | precipitate of lithium hydroxide ([1]; small intestine (pH˜7)): no precipitate of lithium hydroxide | dissolution in alcohol and ether (alcohol and ether): no dissolution in alcohol and ether | dissolution in water (water): dissolution in water | temperature of decomposition [2]: > 300 °C

O=C([O-])[O-].[Li+].[Li+] [lithium carbonate]
efficacy in treating agitation (AAD): not efficacious | global clinical improvement (AAD): associated with global clinical improvement
